Measurements: the NIST ThermoML archive (doi:10.1016/j.fluid.2014.05.043)

Assay: mn = molality of the nth substance listed, in mol/kg
Details: 101 kPa, Liquid; for molar conductivity: 293 K, Direct current cell with electrodes; for mass density: Vibrating tube method

CCCCCCCCCCCCCCCCCC(=O)O.NCCO [2-hydroxyethylammonium stearate] + O
Details | molar conductivity [S·m2/mol]
m1 = 2.77e-05 | 0.0501
m1 = 2.83e-05 | 0.0488
m1 = 2.89e-05 | 0.0477
m1 = 2.96e-05 | 0.0464
m1 = 3.03e-05 | 0.0452
m1 = 3.1e-05 | 0.044
m1 = 3.18e-05 | 0.0428
m1 = 3.26e-05 | 0.0415
m1 = 3.34e-05 | 0.0403
m1 = 3.43e-05 | 0.0392
m1 = 3.52e-05 | 0.0383
m1 = 3.61e-05 | 0.0371
m1 = 3.71e-05 | 0.0362
m1 = 3.82e-05 | 0.0347
m1 = 3.93e-05 | 0.0336
m1 = 4.05e-05 | 0.0323
m1 = 4.17e-05 | 0.0311
m1 = 4.31e-05 | 0.0297
m1 = 4.45e-05 | 0.0283
m1 = 4.6e-05 | 0.0271
m1 = 4.76e-05 | 0.0256
m1 = 4.94e-05 | 0.0241
m1 = 5.13e-05 | 0.0227
m1 = 5.33e-05 | 0.0214
m1 = 5.56e-05 | 0.0204
m1 = 5.81e-05 | 0.0194
m1 = 6.09e-05 | 0.0183
m1 = 6.38e-05 | 0.0172
m1 = 6.7e-05 | 0.0163
m1 = 7.07e-05 | 0.0153
m1 = 7.45e-05 | 0.0143

mass density [kg/m3]
Details | m1 = 5.8e-06 | m1 = 1.15e-05 | m1 = 1.73e-05 | m1 = 2.31e-05 | m1 = 2.89e-05
298.15 K | 996 | 994.86 | 997.03 | 996.95 | 997.02
303.15 K | 994.49 | 995.63 | 995.65 | 995.35 | 995.6
308.15 K | 990.78 | 994.03 | 993.99 | 993.62 | 993.99

O [water] + CCCCCCCCCCCCCCCCCC(=O)O.NCCO
m2 = 0
Details | mass density [kg/m3]
298.15 K | 996.06
303.15 K | 994.67
308.15 K | 993.01
